One test deals with menin protein (Homo sapiens (Human), UniProt O00255). As to the kind of experiment: Fluorescence polarization (FP) competitive binding assay, menin binding affinity. Conditions: menin protein 4 nM, probe 2 nM, room temperature 30 minutes. On the procedure:
A fluorescence polarization (FP) competitive binding assay was used to determine the binding affinities of representative menin inhibitors. A FAM labeled fluorescent probe was designed and synthesized based on a MLL1 peptide (FAM-MM2). Equilibrium dissociation constant (Kd) value of FAM-MM2 to menin protein was determined from protein saturation experiments by monitoring the total fluorescence polarization of mixtures composed with the fluorescent probe at a fixed concentration and the protein with increasing concentrations up to full saturation. Serial dilutions of the protein were mixed with FAM-MM2 to a final volume of 200 μl in the assay buffer (PBS with 0.02% Bovine γ-Globulin and 4% DMSO. 0.01% Triton X-100 was added right before assays). Final FAM-MM2 concentration was 2 nM. Plates were incubated at room temperature for 30 minutes with gentle shaking to assure equilibrium. FP values in millipolarization units (mP) were measured using the Infinite M-1000 plate reader (Tecan U.S., Research Triangle Park, N.C.) in Microfluor 1 96-well, black, v-bottom plates (Thermo Scientific, Waltham, Mass.) at an excitation wavelength of 485 nm and an emission wavelength of 530 nm.
The IC50, see Table 3, of representative Compounds of the Disclosure were determined in a competitive binding experiment. Mixtures of 5 μl of the tested compounds in DMSO and 195 μl of preincubated protein/probe complex solution in the assay buffer were added into assay plates which were incubated at room temperature for 30 minutes with gentle shaking. Final concentration of the menin protein was 4 nM, and final probe concentration is 2 nM. Negative controls containing protein/probe complex only (equivalent to 0% inhibition), and positive controls containing only free probes (equivalent to 100% inhibition), were included in each assay plate. FP values were measured as described above. IC50 values were determined by nonlinear regression fitting of the competition curves.

The subject of a further test is MV4-11. Nature of the test: 7-day proliferation assay (WST-8), MV4-11. The class given is cell-based. To be noted: Homo sapiens, 168 h; Table 5; MV4-11; 7 days; read-out: IC50 in cell growth inhibition. The method, then: (§1) The effect of representative Compounds of the Disclosure on cell viability was determined in a 7-day proliferation assay. Cells were maintained in the appropriate culture medium with 10% FBS at 37° C. and an atmosphere of 5% CO2.
(§2) Cells were seeded in 96-well flat bottom (Corning COSTAR, Corning, N.Y., cat #3595) at a density of 2,000-3,000 cells/well in 100 μl of culture medium. Compounds were serially diluted in the appropriate medium, and 100 μl of the diluted compounds were added to the appropriate wells of the cell plate. After the addition of compounds, the cells were incubated at 37° C. in an atmosphere of 5% CO2 for 7 days. Cell viability was determined using the WST (2-(2-methoxy-4-nitrophenyl)-3-(4-nitrophenyl)-5-(2,4-disulfophenyl)-2H-tetrazolium, monosodium salt) Cell Counting-8 Kit (Dojindo Molecular Technologies, Inc., Rockville, Md.) according to the manufacturers' instructions.
(§3) WST-8 reagent was added to each well at a final concentration of 10% (v/v), and then the plates were incubated at 37° C. for 1-2 hours for color development. The absorbance was measured at 450 nm using a SPECTRAmax PLUS plate reader (Molecular Devices, Sunnyvale, Calif.). The readings were normalized to the DMSO-treated cells and the half maximal inhibitory concentration (IC50) was calculated by nonlinear regression (four parameters sigmoid fitted with variable slope, least squares fit, and no constraint) analysis using the GraphPad Prism 5 software (GraphPad Software, La Jolla, Calif.).
(In general: Tetrazolium assays rely on reduction of a dye to a coloured formazan, in cell work by metabolically active cells.)

The test system of a further test is MOLM13. Nature of the test: 7-day proliferation assay (WST-8), MOLM13. In kind it is cell-based. Conditions: Homo sapiens, MOLM-13, 168 h; Table 5; MOLM13; 7 days; read-out: IC50 in cell growth inhibition. On the procedure: as §1, §2, §3

Each structure is given as a SMILES string.

Sequence of menin protein (O00255 whole entry): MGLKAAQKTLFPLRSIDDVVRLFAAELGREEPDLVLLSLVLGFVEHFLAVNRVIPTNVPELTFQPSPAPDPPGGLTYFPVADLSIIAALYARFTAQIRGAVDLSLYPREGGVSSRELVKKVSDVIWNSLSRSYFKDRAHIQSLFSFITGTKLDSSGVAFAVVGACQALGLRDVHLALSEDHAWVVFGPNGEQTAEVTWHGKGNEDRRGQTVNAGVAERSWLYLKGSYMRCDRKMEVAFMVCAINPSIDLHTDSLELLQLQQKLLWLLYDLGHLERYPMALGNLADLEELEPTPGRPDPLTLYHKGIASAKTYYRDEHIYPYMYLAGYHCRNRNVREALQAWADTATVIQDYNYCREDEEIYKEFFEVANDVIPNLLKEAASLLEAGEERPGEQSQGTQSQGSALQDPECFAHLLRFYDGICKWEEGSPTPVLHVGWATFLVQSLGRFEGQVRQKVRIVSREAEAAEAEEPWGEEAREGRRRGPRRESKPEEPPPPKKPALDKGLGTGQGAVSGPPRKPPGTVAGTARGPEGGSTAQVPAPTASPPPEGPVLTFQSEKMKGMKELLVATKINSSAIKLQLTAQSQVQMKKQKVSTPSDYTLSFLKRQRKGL

Turning to `CCc1nccn1C[C@@](c1cccc(F)c1)(C1CCN(CC2CN(c3ccc(S(=O)(=O)C4CN(C(=O)/C=C/CN(C)C)C4)cc3)C2)CC1)[C@H]1CCC[C@@H]1NC(=O)OC` [Cpd. No. 67, methyl ((1S,2R)-2-((S)-1-(1-((1-(4-((1-((E)-4-(dimethylamino)but-2-enoyl)azetidin-3-yl)sulfonyl)phenyl)azetidin-3-yl)methyl)piperidin-4-yl)-2-(2-ethyl-1H-imidazol-1-yl)-1-(3-fluorophenyl)ethyl)cyclopentyl)carbamate], the figures for the IC50 at menin protein, in the test with MV4-11 and with MOLM13 were 2 nM, 6 nM and 31 nM, respectively.
Taken in the same sequence, the figures for `COC(=O)N[C@H]1CCC[C@@H]1[C@](C#N)(c1cccc(F)c1)C1CCN(CC2CN(c3ccc(S(=O)(=O)C4CN(C(=O)/C=C/CN5CCCC5)C4)cc3)C2)CC1` [Cpd. No. 74, methyl ((1S,2R)-2-((S)-cyano(3-fluorophenyl)(1-((1-(4-((1-((E)-4-(pyrrolidin-1-yl)but-2-enoyl)azetidin-3-yl)sulfonyl)phenyl)azetidin-3-yl)methyl)piperidin-4-yl)methyl)cyclopentyl)carbamate] were 3 nM, 2 nM and 14 nM.
Taken in the same sequence, the figures for `C=CC(=O)N1CCC(S(=O)(=O)c2ccc(N3CC(CN4CCC([C@@](C#N)(c5cccc(F)c5)[C@H]5CCC[C@@H]5NC(=O)OC)CC4)C3)cc2)C1` (stereo partly drawn) [Cpd. No. 77, methyl ((1S,2R)-2-((1S)-(1-((1-(4-((1-acryloylpyrrolidin-3-yl)sulfonyl)phenyl)azetidin-3-yl)methyl)piperidin-4-yl)(cyano)(3-fluorophenyl)methyl)cyclopentyl)carbamate] were 11 nM, 91 nM and 1220 nM.
The matching figures for `C=CC(=O)N1CCCC(S(=O)(=O)c2ccc(N3CC(CN4CCC([C@@](C#N)(c5cccc(F)c5)[C@H]5CCC[C@@H]5NC(=O)OC)CC4)C3)cc2)C1` (stereo partly drawn) [Cpd. No. 78, methyl ((1S,2R)-2-((1S)-(1-((1-(4-((1-acryloylpiperidin-3-yl)sulfonyl)phenyl)azetidin-3-yl)methyl)piperidin-4-yl)(cyano)(3-fluorophenyl)methyl)cyclopentyl)carbamate]: 10 nM, 65 nM and 291 nM.
For `COC(=O)N[C@H]1CCC[C@@H]1[C@](Cn1ccnn1)(c1cccc(F)c1)C1CCN(CC2CN(c3ccc(S(=O)(=O)C4CN(C(=O)/C=C/CN(C)C)C4)cc3)C2)CC1` [Cpd. No. 72, methyl ((1S,2R)-2-((S)-1-(1-((1-(4-((1-((E)-4-(dimethylamino)but-2-enoyl)azetidin-3-yl)sulfonyl)phenyl)azetidin-3-yl)methyl)piperidin-4-yl)-1-(3-fluorophenyl)-2-(1H-1,2,3-triazol-1-yl)ethyl)cyclopentyl)carbamate], the IC50 at menin protein came out at 2 nM; in the test with MV4-11, 1 nM; with MOLM13, 22 nM.
The matching figures for `N#C[C@@](c1cccc(F)c1)(C1CCN(CC2CN(c3ccc(S(=O)(=O)C4CC4)cc3)C2)CC1)[C@H]1CCC[C@@H]1NC(=O)CCl` [Cpd. No. 76, 2-chloro-N-((1S,2R)-2-((S)-cyano(1-((1-(4-(cyclopropylsulfonyl)phenyl)azetidin-3-yl)methyl)piperidin-4-yl)(3-fluorophenyl)methyl)cyclopentyl)acetamide]: 5 nM, 117 nM and 313 nM.
As for `COC(=O)N[C@H]1CCC[C@@H]1[C@](C#N)(c1cccc(F)c1)C1CCN(CC2(F)CN(c3ccc(S(=O)(=O)C4CN(C(=O)/C=C/CN(C)C)C4)cc3)C2)CC1` [Cpd. No. 69, methyl ((1S,2R)-2-((S)-cyano(1-((1-(4-((1-((E)-4-(dimethylamino)but-2-enoyl)azetidin-3-yl)sulfonyl)phenyl)-3-fluoroazetidin-3-yl)methyl)piperidin-4-yl)(3-fluorophenyl)methyl)cyclopentyl)carbamate], the IC50 at menin protein was 9 nM.
Same read-out and setting: the result for `C/C=C/C(=O)N1CC(S(=O)(=O)c2ccc(N3CC(CN4CCC([C@@](C#N)(c5cccc(F)c5)[C@H]5CCC[C@@H]5NC(=O)OC)CC4)C3)cc2)C1` [Cpd. No. 56, methyl ((1S,2R)-2-((S)-(1-((1-(4-((1-((E)-but-2-enoyl)azetidin-3-yl)sulfonyl)phenyl)azetidin-3-yl)methyl)piperidin-4-yl)(cyano)(3-fluorophenyl)methyl)cyclopentyl)carbamate] reads 5 nM; that for `COC(=O)N[C@H]1CCC[C@@H]1[C@](C#N)(c1cccc(F)c1)C1CCN(CCCOc2ccc(S(=O)(=O)C3CN(C(=O)/C=C/CN(C)C)C3)cc2)CC1` [Cpd. No. 68, methyl ((1S,2R)-2-((S)-cyano(1-(3-(4-((1-((E)-4-(dimethylamino)but-2-enoyl)azetidin-3-yl)sulfonyl)phenoxy)propyl)piperidin-4-yl)(3-fluorophenyl)methyl)cyclopentyl)carbamate], 7 nM.
As for `C=CC(=O)N1CC(S(=O)(=O)c2ccc(N3CC(F)(CN4CCC([C@@](Cn5ccnc5CC)(c5cccc(F)c5)[C@H]5CCC[C@@H]5NC(=O)OC)CC4)C3)cc2)C1` [Cpd. No. 16, methyl ((1S,2R)-2-((S)-1-(1-((1-(4-((1-acryloylazetidin-3-yl)sulfonyl)phenyl)-3-fluoroazetidin-3-yl)methyl)piperidin-4-yl)-2-(2-ethyl-1H-imidazol-1-yl)-1-(3-fluorophenyl)ethyl)cyclopentyl)carbamate], the IC50 at menin protein was determined as 2 nM.
With `COC(=O)N[C@H]1CCC[C@@H]1[C@@](C#N)(c1cccc(F)c1)C1CCN(CC2CN(c3ccc(S(=O)(=O)C4CN(C(=O)/C=C/CN(C)C)C4)cc3)C2)CC1` [Cpd. No. 60, methyl ((1S,2R)-2-((R)-cyano(1-((1-(4-((1-((E)-4-(dimethylamino)but-2-enoyl)azetidin-3-yl)sulfonyl)phenyl)azetidin-3-yl)methyl)piperidin-4-yl)(3-fluorophenyl)methyl)cyclopentyl)carbamate], the IC50 was above 2000 nM on menin protein, 525 nM in the test on MV4-11 and 1400 nM in the test with MOLM13.
For `C#CC(=O)N[C@H]1CCC[C@@H]1[C@](C#N)(c1cccc(F)c1)C1CCN(CC2CN(c3ccc(C#N)cc3)C2)CC1` [compound 82, N-((1S,2R)-2-((S)-cyano(1-((1-(4-cyanophenyl)azetidin-3-yl)methyl)piperidin-4-yl)(3-fluorophenyl)methyl)cyclopentyl)propiolamide], the IC50 on menin protein is 4 nM.
Same read-out and setting: the result for `N#Cc1ccc(N2CC(CN3CCC([C@@](C#N)(c4cccc(F)c4)[C@H]4CCC[C@@H]4NC(=O)CCl)CC3)C2)cc1` [compound 81, 2-chloro-N-((1S,2R)-2-((S)-cyano(1-((1-(4-cyanophenyl)azetidin-3-yl)methyl)piperidin-4-yl)(3-fluorophenyl)methyl)cyclopentyl)acetamide] reads 9 nM; that for `C=CC(=O)Nc1cccc(S(=O)(=O)c2ccc(N3CC(F)(CN4CCC([C@@](Cn5ccnc5CC)(c5cccc(F)c5)[C@H]5CCC[C@@H]5NC(=O)OC)CC4)C3)cc2)c1` [Cpd. No. 9, methyl ((1S,2R)-2-((S)-1-(1-((1-(4-((3-acrylamidophenyl)sulfonyl)phenyl)-3-fluoroazetidin-3-yl)methyl)piperidin-4-yl)-2-(2-ethyl-1H-imidazol-1-yl)-1-(3-fluorophenyl)ethyl)cyclopentyl)carbamate], 2 nM.
Still for that read-out and setting: the result for `C=CC(=O)Nc1cccc(S(=O)(=O)c2ccc(N3CC(F)(CN4CCC([C@@](C#N)(c5cccc(F)c5)[C@H]5CCC[C@@H]5NC(=O)OC)CC4)C3)cc2)c1` [Cpd. No. 12, methyl ((1S,2R)-2-((S)-(1-((1-(4-((3-acrylamidophenyl)sulfonyl)phenyl)-3-fluoroazetidin-3-yl)methyl)piperidin-4-yl)(cyano)(3-fluorophenyl)methyl)cyclopentyl)carbamate] reads 42 nM.

The IC50 is the midpoint of a concentration-inhibition curve.

The values are drawn from patent US11045448B2, “Piperidines as covalent menin inhibitors” (THE REGENTS OF THE UNIVERSITY OF MICHIGAN, priority 2017, dated 2021).
